Here are results for two compounds from ChEMBL document CHEMBL1201862, “PubChem BioAssay data set” (2004).

SMILES strings stand for the structures. The source made the active and inactive calls.

The target in one test is Large T antigen (Simian virus 40, UniProt P03070). The test is classed as functional, Betapolyomavirus macacae.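 Also: Confirmatory-stage PubChem screen for compounds that inhibit SV40 T antigen.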
The subject of the next test is HeLa. The test is described as follows: HeLa cell cytotoxicity, dose response, cytotoxicity control, ATP luminescence, cherry-pick samples (AID 687004). The test is classed as functional, cell-based. The conditions noted are these: Homo sapiens.
A further test has as its target T1, Bcl-2-related protein A1 (Mus musculus, UniProt Q07440).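 Also: confirmatory dose–response counterscreen on Bfl-1, used to check hits from a UBC13 polyubiquitin inhibitor campaign.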
T1 sequence (Q07440 whole entry): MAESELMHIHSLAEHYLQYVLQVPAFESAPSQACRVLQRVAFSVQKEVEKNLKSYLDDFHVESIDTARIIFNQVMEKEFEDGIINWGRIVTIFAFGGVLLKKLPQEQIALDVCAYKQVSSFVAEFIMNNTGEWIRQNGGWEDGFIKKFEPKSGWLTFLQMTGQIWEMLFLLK
The test is classed as functional.

A further test relates to Cryptococcus neoformans. The test is described as follows: PubChem AID 686997. The test is classed as functional, organism-based.

Chain of Large T antigen (P03070 whole entry): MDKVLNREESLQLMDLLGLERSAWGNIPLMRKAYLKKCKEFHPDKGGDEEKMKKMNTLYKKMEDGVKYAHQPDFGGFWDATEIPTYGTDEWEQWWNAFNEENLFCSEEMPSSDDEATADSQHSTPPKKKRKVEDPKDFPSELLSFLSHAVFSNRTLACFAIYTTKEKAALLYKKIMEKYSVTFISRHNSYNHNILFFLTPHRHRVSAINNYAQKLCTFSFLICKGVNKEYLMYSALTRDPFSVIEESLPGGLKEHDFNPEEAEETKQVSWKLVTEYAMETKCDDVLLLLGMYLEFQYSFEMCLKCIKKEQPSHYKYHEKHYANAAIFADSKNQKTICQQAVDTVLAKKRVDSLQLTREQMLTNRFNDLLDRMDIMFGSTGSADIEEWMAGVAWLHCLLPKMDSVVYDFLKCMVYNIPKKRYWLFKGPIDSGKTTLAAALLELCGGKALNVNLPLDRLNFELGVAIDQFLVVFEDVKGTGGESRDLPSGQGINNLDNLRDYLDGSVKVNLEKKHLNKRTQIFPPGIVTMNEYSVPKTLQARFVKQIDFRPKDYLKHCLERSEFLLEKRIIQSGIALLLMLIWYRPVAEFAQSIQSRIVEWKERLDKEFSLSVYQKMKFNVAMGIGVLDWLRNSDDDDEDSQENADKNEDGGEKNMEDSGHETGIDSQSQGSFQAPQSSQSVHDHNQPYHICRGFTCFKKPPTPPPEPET

Consider `COc1cc(-c2nnc(SCc3cc(=O)oc4cc(O)c(O)cc34)o2)cc(OC)c1OC`, for which, at Large T antigen, the IC50 was 2.8 µM (active).

In the case of `CCOC(=O)c1c(-c2ccc(-c3ccccc3)cc2)csc1NC(=O)CNCCN(C)C`, the half-maximal activity concentration (AC50) in the test with HeLa was 8.39 µM (active); in the test on Cryptococcus neoformans, 20.9 µM (active). On Bcl-2-related protein A1, the IC50 is > 20 µM (inactive).

One may read the IC50 as the concentration that gives 50% inhibition. In general, AC50 refers to the concentration giving half of the maximal activity seen.
